Earlier results on one compound are cited in US20040076682A1, “Novel ophthalmic compositions” (priority 2001, published 2004).

As a reminder, the MIC80 is an inhibitory concentration at the 80% level, which refers to growth in some studies and to a panel of isolates in others.

For the data set, the system named is Streptococcus sp. Conditions: Streptococcus sp clinical isolate of ocular infections.

Values after ≈ are worked out from the molar mass of the structure shown.

Consider `CCn1cc(C(=O)O)c(=O)c2cc(F)c(N3CCNCC3)cc21` [norfloxacin], for which the MIC80 is 12.5 µg/mL (≈ 39.1 µM).
